Tested on: 292921-168-R-J2-PDC spheroids with HUVEC/MSC, viability
Assay: Anticancer human tumor 292921-168-R-J2-PDC patient-derived pancreatic carcinoma cell line growth inhibition [TAK]
Conditions: for IC50: curve of first compound; for viability, T/C: stronger effect = lower value; active = viability on the fitted dose curve at most 10% of control; inactive = the rest
Text: Combinatorial screen of targeted agents with TAK-243 and ipatasertib in multi-cell type tumor spheroids
A high-throughput screen of multi-cell type tumor spheroids was designed to identify active combinations of targeted small molecules and TAK-243 or ipatasertib. Complex spheroids include a stromal component modeled by human endothelial cells (HUVEC) and fibroblasts modeled by human mesenchymal stem cells (MSCs). The concentration ranges selected for each drug and investigational agent were based upon clinically achievable concentrations if the clinical Cmax of the agent was known.
Compounds. The drugs and investigational agents: TAK-243 (785004), ipatasertib (767898), everolimus (733504), selumetinib (741078), bortezomib (756655), trametinib (758246), ixazomib (758254), vemurafenib (761431), dabrafenib (764134), sapanisertib (764658), alpelisib (765974), and copanlisib (816437), were obtained from the National Cancer Institute (NCI) Developmental Therapeutics Program Chemical Repository. The FDA-approved anticancer drug set is available from the NCI Developmental Therapeutics Program. […] The stock solutions were prepared in dimethyl sulfoxide (DMSO, Sigma-Aldrich, St. Louis, MO, cat. D2650) at 800-fold the tested concentration and stored at -70 degrees C prior to their use. All drugs and investigational agents were tested over a range starting from a high concentration at or near the clinical Cmax and decreasing in half-log increments. If the clinical Cmax for an agent had not been determined, the highest concentration tested was 10 microM.
NCI60 Cell Culture. NCI60 cell lines were obtained from the NCI Developmental Therapeutics Program Tumor Repository. For each lot of cells, the Repository performed Applied Biosystems AmpFLSTR Identifiler testing with PCR amplification to confirm consistency with the published Identifier STR profile for each cell line. Cells were kept in continuous culture for no more than 20 passages. The optimal seeding densities for each of the cell lines at each time point assessed were determined prior to performing the concentration response studies. Briefly, the NCI60 human tumor lines were grown as monolayers in RPMI 1640 medium supplemented with 10% FBS and 2 mmol/L L-glutamine.
An additional 2 lines were from the NCI60 cell line panel including melanomas, MALME-3M and SK-MEL-2. Pooled donor human umbilical vein endothelial cells (HUVEC, Lonza, cat. CC-2519) and human mesenchymal stem cells (hMSC, Lonza, cat. PT-2501) were purchased from Lonza (Walkersville, MD).
PDMR cell lines were grown in complete medium (DC medium): Dulbecco's modified Eagle's medium (DMEM)/F12 supplemented with 5% fetal bovine serum (FBS), 2 mM L-glutamine, 100 U/mL penicillin and 100 µg/ml streptomycin, 0.4 µg/ml hydrocortisone, 10 ng/ml epidermal growth factor (EGF) recombinant human protein, 24 µg/mL adenine, and 0.1 mg/mL primocin. During culture from frozen stock vials, PDMR cells were cultured in the same medium containing 10 µM Y-27632 (see Table 3). The PDCs were cultured in complete DMEM/F12 media without 10 microM Y-27632 dihydrochloride for at least two passages prior to the screen. The pooled donor HUVEC and hMSC were cultured in endothelial cell growth medium 2 (PromoCell, Heidelberg, Germany, cat. C-22011) and mesenchymal stem cell growth medium 2 (PromoCell, cat. C-28009), respectively. For all experiments, HUVEC and hMSC were used at passages </=5.
For the pre-screen, cell seeding densities were determined from a titration spanning the range from 5,000 to 313 cells per well. The mct-spheroids including 60% malignant cells, 25% HUVEC and 15% MSC dispensed as a mixture into U-bottom Ultra-Low Attachment 384-well plates (Corning, NY)
High-throughput Drug Combination Screening.
Prior to their inoculation into 384-well plates, malignant cells, HUVEC, and hMSC were removed from T flasks using TrypLE express (Thermo Fisher Scientific, cat. 12605036) and harvested by centrifugation for 5 min at 233 x g. […]
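Note: spheroids exposed to drugs for seven days before readout.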

Cn1cnc2c(F)c(Nc3ccc(Br)cc3Cl)c(C(=O)NOCCO)cc21 + CC(C)NCC(C(=O)N1CCN(c2ncnc3c2C(C)CC3O)CC1)c1ccc(Cl)cc1
< 9.49 nM: IC50 (second compound 0.3 µM) | IC50 (second compound 0.949 µM) | IC50 (second compound 3 µM) | IC50 (second compound 9.49 µM) | IC50 (second compound 30 µM)
inactive: viability, T/C (second compound 0.3 µM, first compound 0.00949 µM) 49.9% | viability, T/C (second compound 0.3 µM, first compound 0.03 µM) 36.5% | viability, T/C (second compound 0.3 µM, first compound 0.0949 µM) 30.9% | viability, T/C (second compound 0.3 µM, first compound 0.3 µM) 26.8% | viability, T/C (second compound 0.3 µM, first compound 0.949 µM) 21.4% | viability, T/C (second compound 0.3 µM, first compound 3 µM) 13.1% | viability, T/C (second compound 0.949 µM, first compound 0.00949 µM) 45.3% | viability, T/C (second compound 0.949 µM, first compound 0.03 µM) 34.7% | viability, T/C (second compound 0.949 µM, first compound 0.0949 µM) 30.9% | viability, T/C (second compound 0.949 µM, first compound 0.3 µM) 28.1% | viability, T/C (second compound 0.949 µM, first compound 0.949 µM) 21.5% | viability, T/C (second compound 0.949 µM, first compound 3 µM) 13% | viability, T/C (second compound 3 µM, first compound 0.00949 µM) 39.5% | viability, T/C (second compound 3 µM, first compound 0.03 µM) 30.3% | viability, T/C (second compound 3 µM, first compound 0.0949 µM) 27.6% | viability, T/C (second compound 3 µM, first compound 0.3 µM) 24.1% | viability, T/C (second compound 3 µM, first compound 0.949 µM) 17.3% | viability, T/C (second compound 3 µM, first compound 3 µM) 11.8% | viability, T/C (second compound 9.49 µM, first compound 0.00949 µM) 32.2% | viability, T/C (second compound 9.49 µM, first compound 0.03 µM) 24.5% | viability, T/C (second compound 9.49 µM, first compound 0.0949 µM) 22.6% | viability, T/C (second compound 9.49 µM, first compound 0.3 µM) 20.6% | viability, T/C (second compound 9.49 µM, first compound 0.949 µM) 15.6% | viability, T/C (second compound 9.49 µM, first compound 3 µM) 10.9% | viability, T/C (second compound 30 µM, first compound 0.00949 µM) 25.3% | viability, T/C (second compound 30 µM, first compound 0.03 µM) 21.2% | viability, T/C (second compound 30 µM, first compound 0.0949 µM) 18.4% | viability, T/C (second compound 30 µM, first compound 0.3 µM) 17.5% | viability, T/C (second compound 30 µM, first compound 0.949 µM) 13.8% | viability, T/C (second compound 30 µM, first compound 3 µM) 8.92%

CC(C)CC(NC(=O)C(Cc1ccccc1)NC(=O)c1cnccn1)B(O)O (stereo not given) + CC(C)NCC(C(=O)N1CCN(c2ncnc3c2C(C)CC3O)CC1)c1ccc(Cl)cc1
active: viability, T/C (second compound 0.949 µM, first compound 0.01 µM) 6.56% | viability, T/C (second compound 3 µM, first compound 0.01 µM) 6.46% | viability, T/C (second compound 9.49 µM, first compound 0.01 µM) 4.62% | viability, T/C (second compound 30 µM, first compound 0.01 µM) 6.44%
4.58 nM: IC50 (second compound 0.3 µM)
< 0.0316 nM: IC50 (second compound 30 µM)
inactive: viability, T/C (second compound 0.3 µM, first compound 31.6 pM) 83.7% | viability, T/C (second compound 0.3 µM, first compound 0.0001 µM) 86.5% | viability, T/C (second compound 0.3 µM, first compound 0.000316 µM) 88.6% | viability, T/C (second compound 0.3 µM, first compound 0.001 µM) 89.3% | viability, T/C (second compound 0.3 µM, first compound 0.00316 µM) 69% | viability, T/C (second compound 0.3 µM, first compound 0.01 µM) 9.99% | viability, T/C (second compound 0.949 µM, first compound 31.6 pM) 80.2% | viability, T/C (second compound 0.949 µM, first compound 0.0001 µM) 81.7% | viability, T/C (second compound 0.949 µM, first compound 0.000316 µM) 83.5% | viability, T/C (second compound 0.949 µM, first compound 0.001 µM) 80.9% | viability, T/C (second compound 0.949 µM, first compound 0.00316 µM) 62.9% | viability, T/C (second compound 3 µM, first compound 31.6 pM) 73.9% | viability, T/C (second compound 3 µM, first compound 0.0001 µM) 76.1% | viability, T/C (second compound 3 µM, first compound 0.000316 µM) 72.6% | viability, T/C (second compound 3 µM, first compound 0.001 µM) 78.6% | viability, T/C (second compound 3 µM, first compound 0.00316 µM) 62.1% | viability, T/C (second compound 9.49 µM, first compound 31.6 pM) 64.1% | viability, T/C (second compound 9.49 µM, first compound 0.0001 µM) 63% | viability, T/C (second compound 9.49 µM, first compound 0.000316 µM) 58.7% | viability, T/C (second compound 9.49 µM, first compound 0.001 µM) 58.5% | viability, T/C (second compound 9.49 µM, first compound 0.00316 µM) 62.8% | viability, T/C (second compound 30 µM, first compound 31.6 pM) 41.7% | viability, T/C (second compound 30 µM, first compound 0.0001 µM) 40.5% | viability, T/C (second compound 30 µM, first compound 0.000316 µM) 41.3% | viability, T/C (second compound 30 µM, first compound 0.001 µM) 42.8% | viability, T/C (second compound 30 µM, first compound 0.00316 µM) 38.7%
3.99 nM: IC50 (second compound 9.49 µM)
4.07 nM: IC50 (second compound 3 µM)
4.11 nM: IC50 (second compound 0.949 µM)
